Results from ChEMBL document CHEMBL1255489, “Low prevalence of fks1 hot spot 1 mutations in a worldwide collection of Candida strains” (2010).
Values after ≈ are worked out from the molar mass of the structure shown. Starred links: 1 amine or outer side, 2 acyl side, 3 side chain; linkers in the order of their positions; H or OH if unused. Positions of bridges follow the written chain, without caps; N, C: chain ends. Non-standard residues stand in square brackets, D forms with d. Residues, ends and D or L forms follow the SMILES beside them. *: point of attachment. hTyr(3S-OH,4S-OH,3'-OSO3H) = N[C@H](C(=O)O)[C@H](O)[C@@H](O)c1ccc(O)c(OS(=O)(=O)O)c1; pTerphenylCO(4''-OnC5H11) = CCCCCOc1ccc(-c2ccc(-c3ccc(C(=O)*)cc3)cc2)cc1; Orn(4R-OH,5R-OH) = O=C([C@H](C[C@@H](O)[C@@H](O)N[*:3])N[*:1])[*:2]; hTyr(3S-OH,4S-OH) = N[C@H](C(=O)O)[C@H](O)[C@@H](O)c1ccc(O)cc1; Pro(3S-OH,4S-Me) = C[C@H]1CN[C@H](C(=O)O)[C@H]1O; X1 = CCCCCOc1ccc(-c2cc(-c3ccc(C(=O)*)cc3)no2)cc1; Gln(3R-OH) = NC(=O)C[C@@H](O)[C@H](N)C(=O)O; Hyp = O=C(O)[C@@H]1C[C@@H](O)CN1

Experiments:
Type in all cases: functional
Nakaseomyces glabratus [1] = experiment: Antifungal activity against Candida glabrata isolate 4720 expressing fks2 S645P mutant after 24 to 48 hrs by broth microdilution method
Pichia kudriavzevii [2] = experiment: Antifungal activity against Candida krusei after 24 to 48 hrs by broth microdilution method
Nakaseomyces glabratus [3] = experiment: Antifungal activity against Candida glabrata isolate 4690 expressing fks2 L644W mutant after 24 to 48 hrs by broth microdilution method
Candida albicans [4] = experiment: Antifungal activity against Candida albicans isolate 4700 expressing fks1 F641Y mutant after 24 to 48 hrs by broth microdilution method
Nakaseomyces glabratus [5] = experiment: Antifungal activity against Candida glabrata after 24 to 48 hrs by broth microdilution method
Nakaseomyces glabratus [6] = experiment: Antifungal activity against Candida glabrata isolate 4707 expressing fks2 S645P mutant after 24 to 48 hrs by broth microdilution method
Nakaseomyces glabratus [7] = experiment: Antifungal activity against Candida glabrata isolate 4708 expressing fks1 S645P mutant after 24 to 48 hrs by broth microdilution method
Candida tropicalis [8] = experiment: Antifungal activity against Candida tropicalis isolate 4748 expressing fks1 F641S mutant after 24 to 48 hrs by broth microdilution method
Candida albicans [9] = experiment: Antifungal activity against Candida albicans after 24 to 48 hrs by broth microdilution method
Candida albicans [10] = experiment: Antifungal activity against Candida albicans expressing fks1 F641S mutant after 24 to 48 hrs by broth microdilution method
Candida tropicalis [11] = experiment: Antifungal activity against Candida tropicalis isolate 4780 expressing fks1 F641S mutant after 24 to 48 hrs by broth microdilution method
Candida = experiment: Antifungal activity against Candida species after 24 to 48 hrs by broth microdilution method
Candida tropicalis [12] = experiment: Antifungal activity against Candida tropicalis expressing fks1 L644W mutant by EUCAST method
Pichia kudriavzevii [13] = experiment: Antifungal activity against Candida krusei ATCC 6258 expressing fks1 L644W mutant by EUCAST method

CCCCCOc1ccc(-c2ccc(-c3ccc(C(=O)N[C@H]4C[C@@H](O)[C@@H](O)NC(=O)[C@@H]5[C@@H](O)[C@@H](C)CN5C(=O)[C@H]([C@@H](C)O)NC(=O)[C@H]([C@H](O)[C@@H](O)c5ccc(O)cc5)NC(=O)[C@@H]5C[C@@H](O)CN5C(=O)[C@H]([C@@H](C)O)NC4=O)cc3)cc2)cc1 [ANIDULAFUNGIN] ({pTerphenylCO(4''-OnC5H11)}-[Orn(4R-OH,5R-OH)]T[Hyp][hTyr(3S-OH,4S-OH)]T[Pro(3S-OH,4S-Me)]; lactam 1-C)
MIC (Nakaseomyces glabratus [1]): 4 µg/mL (≈ 3.51 µM)
MIC (Pichia kudriavzevii [2]): 0.06 µg/mL (≈ 0.0526 µM)
MIC (Nakaseomyces glabratus [3]): 0.12 µg/mL (≈ 0.105 µM)
MIC (Candida albicans [4]): 0.12 µg/mL (≈ 0.105 µM)
MIC (Nakaseomyces glabratus [5]): ≤ 0.12 µg/mL
MIC (Nakaseomyces glabratus [6]): 4 µg/mL (≈ 3.51 µM)
MIC (Nakaseomyces glabratus [7]): 4 µg/mL (≈ 3.51 µM)
MIC (Candida tropicalis [8]): 1 µg/mL (≈ 0.877 µM)
MIC (Candida albicans [9]): ≤ 0.12 µg/mL
MIC (Candida albicans [10]): 0.12 µg/mL (≈ 0.105 µM)
MIC (Candida tropicalis [11]): 1 µg/mL (≈ 0.877 µM)

CC[C@H](C)C[C@H](C)CCCCCCCCC(=O)N[C@H]1C[C@@H](O)[C@@H](NCCN)NC(=O)[C@@H]2[C@@H](O)CCN2C(=O)[C@H]([C@H](O)CCN)NC(=O)[C@H]([C@H](O)[C@@H](O)c2ccc(O)cc2)NC(=O)[C@@H]2C[C@@H](O)CN2C(=O)[C@H]([C@@H](C)O)NC1=O [CASPOFUNGIN]
MIC (Nakaseomyces glabratus [1]): ≥ 8 µg/mL
MIC (Pichia kudriavzevii [2]): 1 µg/mL (≈ 0.915 µM)
MIC (Nakaseomyces glabratus [3]): 0.25 µg/mL (≈ 0.229 µM)
MIC (Candida): ≤ 0.008 µg/mL
MIC (Candida tropicalis [12]): 1 µg/mL (≈ 0.915 µM)
MIC (Pichia kudriavzevii [13]): 8 µg/mL (≈ 7.32 µM)
MIC (Candida albicans [4]): 1 µg/mL (≈ 0.915 µM)
MIC (Nakaseomyces glabratus [5]): ≤ 0.06 µg/mL
MIC (Nakaseomyces glabratus [6]): 8 µg/mL (≈ 7.32 µM)
MIC (Nakaseomyces glabratus [7]): ≥ 8 µg/mL
MIC (Candida tropicalis [8]): 4 µg/mL (≈ 3.66 µM)
MIC (Candida albicans [9]): ≤ 0.06 µg/mL
MIC (Candida albicans [10]): 2 µg/mL (≈ 1.83 µM)
MIC (Candida tropicalis [11]): 4 µg/mL (≈ 3.66 µM)

CCCCCOc1ccc(-c2cc(-c3ccc(C(=O)N[C@H]4C[C@@H](O)[C@@H](O)NC(=O)[C@@H]5[C@@H](O)[C@@H](C)CN5C(=O)[C@H]([C@H](O)CC(N)=O)NC(=O)[C@H]([C@H](O)[C@@H](O)c5ccc(O)c(OS(=O)(=O)O)c5)NC(=O)[C@@H]5C[C@@H](O)CN5C(=O)[C@H]([C@@H](C)O)NC4=O)cc3)no2)cc1 [MICAFUNGIN] (X1-[Orn(4R-OH,5R-OH)]T[Hyp][hTyr(3S-OH,4S-OH,3'-OSO3H)][Gln(3R-OH)][Pro(3S-OH,4S-Me)]; lactam 1-C)
MIC (Nakaseomyces glabratus [1]): 4 µg/mL (≈ 3.15 µM)
MIC (Nakaseomyces glabratus [3]): 0.06 µg/mL (≈ 0.0472 µM)
MIC (Candida albicans [4]): 0.25 µg/mL (≈ 0.197 µM)
MIC (Nakaseomyces glabratus [5]): ≤ 0.06 µg/mL
MIC (Nakaseomyces glabratus [6]): 2 µg/mL (≈ 1.57 µM)
MIC (Nakaseomyces glabratus [7]): 4 µg/mL (≈ 3.15 µM)
MIC (Candida tropicalis [8]): 0.5 µg/mL (≈ 0.394 µM)
MIC (Candida albicans [9]): ≤ 0.06 µg/mL
MIC (Candida albicans [10]): 0.5 µg/mL (≈ 0.394 µM)
MIC (Candida tropicalis [11]): 0.5 µg/mL (≈ 0.394 µM)
